In patent publication US20110212997A1, “PIPERIDINE-4-ACETAMIDE DERIVATIVES AND THEIR USE AS MONOAMINE NEUROTRANSMITTER RE-UPTAKE INHIBITORS” (NEUROSEARCH A/S, priority 2008, published 2011):
Structures can show the parent of a compound that is named as a salt.

| melting point | Structure (SMILES) |
| --- | --- |
| 62 to 64 °C | CCN(C(=O)CC1CCNCC1)c1ccc(Cl)c(Cl)c1Cl (as salt: fumaric acid salt) [Compound C10, N-Ethyl-2-piperidin-4-yl-N-(2,3,4-trichloro-phenyl)-acetamide] |
| 58 to 60 °C | CCN(C(=O)CC1CCNCC1)c1ccc(Br)c(Br)c1 (as salt: fumaric acid salt) [Compound C11, N-(3,4-Dibromo-phenyl)-N-ethyl-2-piperidin-4-yl-acetamide] |
| 55 to 58 °C | CCCN(C(=O)CC1CCNCC1)c1ccc(Cl)c(Cl)c1 (as salt: fumaric acid salt) [Compound C12, N-(3,4-Dichloro-phenyl)-2-piperidin-4-yl-N-propyl-acetamide] |
| 141 to 143 °C | CCN(C(=O)CC1CCNCC1)c1ccc(Cl)c(Br)c1 (as salt: fumaric acid salt) [Compound C13, N-(3-Bromo-4-chloro-phenyl)-N-ethyl-2-piperidin-4-yl-acetamide] |
| 63 to 66 °C | CCN(C(=O)CC1CCN(C)CC1)c1cccc2ccccc12 (as salt: fumaric acid salt) [Compound D3, N-Ethyl-2-(1-methyl-piperidin-4-yl)-N-naphthalen-1-yl-acetamide] |
| 159 to 161 °C | CCN(C(=O)CC1CCNCC1)c1ccc(Br)c(Cl)c1 (as salt: fumaric acid salt) [Compound D4, N-(4-Bromo-3-chloro-phenyl)-N-ethyl-2-piperidin-4-yl-acetamide] |
| 112 to 114 °C | CCN(C(=O)CC1CCNCC1)c1ccc(Cl)cc1Cl (as salt: fumaric acid salt) [Compound D5, N-(2,4-Dichloro-phenyl)-N-ethyl-2-piperidin-4-yl-acetamide] |
| 180 to 183 °C | CN1CCC(CC(=O)Nc2ccc(Cl)c(Cl)c2)CC1 (as salt: fumaric acid salt) [Compound D6, N-(3,4-Dichloro-phenyl)-2-(1-methyl-piperidin-4-yl)-acetamide] |
| 51 to 53 °C | CCN(C(=O)CC1CCN(C)CC1)c1cccc(Cl)c1Cl (as salt: fumaric acid salt) [Compound D8, N-(2,3-Dichloro-phenyl)-N-ethyl-2-(1-methyl-piperidin-4-yl)-acetamide] |
| 57 to 59 °C | CN1CCC(CC(=O)N(C)c2ccc(Cl)c(Cl)c2)CC1 (as salt: fumaric acid salt) [Compound D12, N-(3,4-Dichloro-phenyl)-N-methyl-2-(1-methyl-piperidin-4-yl)-acetamide] |
| 175 to 177 °C | CCN(C(=O)CC1CCN(C)CC1)c1ccc(Cl)cc1Cl (as salt: fumaric acid salt) [Compound D14, N-(2,4-Dichloro-phenyl)-N-ethyl-2-(1-methyl-piperidin-4-yl)-acetamide] |
| 167 to 169 °C | CCN(C(=O)CC1CCN(C)CC1)c1c(Cl)cccc1Cl (as salt: fumaric acid salt) [Compound D16, N-(2,6-Dichloro-phenyl)-N-ethyl-2-(1-methyl-piperidin-4-yl)-acetamide] |
| 181 to 183 °C | CCN(C(=O)CC1CCN(C)CC1)c1ccc(Cl)c(Cl)c1Cl (as salt: fumaric acid salt) [Compound D18, N-Ethyl-2-(1-methyl-piperidin-4-yl)-N-(2,3,4-trichloro-phenyl)-acetamide] |
| 144 to 146 °C | CCCN(C(=O)CC1CCN(C)CC1)c1ccc(Cl)c(Cl)c1 (as salt: fumaric acid salt) [Compound D20, N-(3,4-Dichloro-phenyl)-2-(1-methyl-piperidin-4-yl)-N-propyl-acetamide] |
| 153 to 155 °C | CCN(C(=O)CC1CCN(C)CC1)c1ccc(Cl)c(Cl)c1 (as salt: hydrochloric acid salt) [Compound D1, N-(3,4-Dichloro-phenyl)-N-ethyl-2-(1-methyl-piperidin-4-yl)-acetamide] |
